From PMC8725448 (Journal of Cannabis Research, 2022)
Where “and” joins values, the source holds several entries; their conditions need not be identical. Equal values may be shown once. Read-outs that look alike come from different tables or passages of the source.

Columns and labels:
[1] = system: hyperthermia-induced seizures in Scn1a^+/- mice; conditions: cited from earlier work
[2] = design: method as in Anderson et al. 2019b; conditions: CBGA; ref Anderson et al. 2019b; cited from earlier work
[3] = system: maximal electroshock (MES) seizure threshold; design: method as in Anderson et al. 2021b; conditions: ref Anderson et al. 2021b; cited from earlier work
human GPR55 = target: T1, human GPR55 (Homo sapiens, UniProt Q9Y2T6); design: method as in Anderson et al. 2021a, 2021b and unpublished data; conditions: at therapeutically relevant concentrations; ref Anderson et al. 2021a, 2021b and unpublished data; cited from earlier work
T1 construct: expressed in transfected cells; host or cells: HEK293
T1 sequence (Q9Y2T6 whole entry): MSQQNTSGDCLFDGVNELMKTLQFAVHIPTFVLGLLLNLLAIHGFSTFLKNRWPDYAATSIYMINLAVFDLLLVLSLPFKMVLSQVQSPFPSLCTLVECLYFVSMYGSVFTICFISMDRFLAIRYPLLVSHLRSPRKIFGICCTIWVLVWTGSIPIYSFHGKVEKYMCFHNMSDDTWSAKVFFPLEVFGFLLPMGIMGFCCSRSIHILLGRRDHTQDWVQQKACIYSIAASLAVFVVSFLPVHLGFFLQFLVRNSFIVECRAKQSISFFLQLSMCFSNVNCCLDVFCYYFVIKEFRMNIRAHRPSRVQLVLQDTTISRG

CaV3.1 = target: T2, CaV3.1 (Homo sapiens, UniProt O43497); design: method as in Anderson et al. 2021a, 2021b and unpublished data; conditions: at therapeutically relevant concentrations; ref Anderson et al. 2021a, 2021b and unpublished data; cited from earlier work
T2 construct: expressed in transfected cells; host or cells: Flp-In T-REx HEK (tetracycline-induced)
T2 sequence (O43497 whole entry): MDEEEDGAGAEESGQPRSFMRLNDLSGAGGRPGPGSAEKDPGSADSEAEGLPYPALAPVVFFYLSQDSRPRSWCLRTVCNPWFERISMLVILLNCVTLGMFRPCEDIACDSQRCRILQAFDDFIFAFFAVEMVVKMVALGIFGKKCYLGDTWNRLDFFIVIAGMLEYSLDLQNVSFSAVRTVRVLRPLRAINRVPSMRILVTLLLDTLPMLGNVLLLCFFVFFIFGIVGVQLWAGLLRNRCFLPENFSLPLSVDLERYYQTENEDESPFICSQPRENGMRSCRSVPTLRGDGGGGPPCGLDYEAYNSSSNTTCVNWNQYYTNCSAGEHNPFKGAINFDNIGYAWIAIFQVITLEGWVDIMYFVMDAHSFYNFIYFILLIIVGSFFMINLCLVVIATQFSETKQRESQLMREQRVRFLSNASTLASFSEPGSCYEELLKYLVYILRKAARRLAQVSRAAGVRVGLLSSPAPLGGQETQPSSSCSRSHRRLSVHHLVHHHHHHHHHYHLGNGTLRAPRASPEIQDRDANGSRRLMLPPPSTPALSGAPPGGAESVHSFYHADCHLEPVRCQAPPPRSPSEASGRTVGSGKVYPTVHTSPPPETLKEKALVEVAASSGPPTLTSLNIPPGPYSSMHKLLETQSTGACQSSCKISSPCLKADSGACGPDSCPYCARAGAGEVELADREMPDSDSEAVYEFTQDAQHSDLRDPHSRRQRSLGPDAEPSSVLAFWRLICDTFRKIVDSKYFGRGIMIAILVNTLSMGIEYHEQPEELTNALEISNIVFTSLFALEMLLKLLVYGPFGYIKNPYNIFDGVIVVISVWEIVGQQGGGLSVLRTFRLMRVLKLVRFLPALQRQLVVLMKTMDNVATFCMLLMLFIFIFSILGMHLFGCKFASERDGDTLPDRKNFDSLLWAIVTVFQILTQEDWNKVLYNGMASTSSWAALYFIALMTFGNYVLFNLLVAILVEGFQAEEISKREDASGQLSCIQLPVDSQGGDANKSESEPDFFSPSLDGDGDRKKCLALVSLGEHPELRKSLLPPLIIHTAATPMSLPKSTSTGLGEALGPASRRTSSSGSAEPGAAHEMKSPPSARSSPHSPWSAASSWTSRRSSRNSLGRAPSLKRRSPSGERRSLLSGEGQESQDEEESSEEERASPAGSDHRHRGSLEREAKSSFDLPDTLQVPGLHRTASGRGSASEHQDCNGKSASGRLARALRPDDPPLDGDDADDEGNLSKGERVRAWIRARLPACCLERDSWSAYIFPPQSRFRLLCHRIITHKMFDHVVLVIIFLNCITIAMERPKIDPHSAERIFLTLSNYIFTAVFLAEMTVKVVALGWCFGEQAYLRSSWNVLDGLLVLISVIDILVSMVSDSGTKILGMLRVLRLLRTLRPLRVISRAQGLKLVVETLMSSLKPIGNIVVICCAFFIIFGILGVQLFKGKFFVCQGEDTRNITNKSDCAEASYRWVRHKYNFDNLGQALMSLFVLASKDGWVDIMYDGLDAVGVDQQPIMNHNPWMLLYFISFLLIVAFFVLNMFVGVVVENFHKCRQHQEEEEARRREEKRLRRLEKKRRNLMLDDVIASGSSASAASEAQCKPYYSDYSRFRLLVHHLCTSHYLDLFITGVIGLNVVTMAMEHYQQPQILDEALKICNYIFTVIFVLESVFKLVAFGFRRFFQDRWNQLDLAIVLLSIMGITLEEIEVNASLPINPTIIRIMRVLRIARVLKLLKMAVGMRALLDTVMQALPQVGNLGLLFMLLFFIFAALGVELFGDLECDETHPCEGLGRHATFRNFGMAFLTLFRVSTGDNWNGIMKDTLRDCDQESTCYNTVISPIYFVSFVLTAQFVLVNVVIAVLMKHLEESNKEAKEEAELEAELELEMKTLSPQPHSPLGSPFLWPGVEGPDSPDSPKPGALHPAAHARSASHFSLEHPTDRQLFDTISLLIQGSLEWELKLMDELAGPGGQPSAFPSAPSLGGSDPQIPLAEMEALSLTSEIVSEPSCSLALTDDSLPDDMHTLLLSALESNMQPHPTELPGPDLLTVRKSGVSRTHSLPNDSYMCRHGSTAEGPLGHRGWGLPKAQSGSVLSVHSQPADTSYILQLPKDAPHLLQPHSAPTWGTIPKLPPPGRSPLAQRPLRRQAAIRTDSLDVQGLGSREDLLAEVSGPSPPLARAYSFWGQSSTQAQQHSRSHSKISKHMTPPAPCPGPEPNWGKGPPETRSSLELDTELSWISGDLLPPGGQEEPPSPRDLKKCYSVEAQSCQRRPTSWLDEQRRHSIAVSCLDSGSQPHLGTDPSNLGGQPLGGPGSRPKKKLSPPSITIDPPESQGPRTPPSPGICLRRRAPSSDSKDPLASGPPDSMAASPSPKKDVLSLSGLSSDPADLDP

control HEK293 cells = test: GPR55 negative control pERK experiment; type: cell-based, human; conditions: 10 μM; control HEK293 cells without GPR55
Description: ERK phosphorylation (pERK) was detected using the AlphaScreen® SureFire® Phospho-ERK1/2 assay (Perkin Elmer; Waltham, USA) as previously described (Anderson et al. [2021b]). Briefly, the human embryonic kidney (HEK) 293 cells stably expressing human GPR55 in L-15 media were plated (110,000/well) into a Corning CellBIND (Corning Inc; Corning, USA) clear, flat-bottomed 96-well plate and incubated 20–24 h at 37°C in ambient CO2. Media was aspirated, 50 μL phenol red-free DMEM/F-12 was added to each well and incubated for 2–3 h at 37°C in a humidified 5% CO2 atmosphere. Compounds (10 μM in phenol red-free DMEM/F-12) were added and incubated for 20 min before media was aspirated and lysis buffer was added. Lysates (5 μL) were incubated with reaction mixture (7 μL) for 3.5 h at room temperature. A CLARIOstar plate reader (BMG Labtech; Offenburg, GER) was used to take fluorescence readings over 740 msec (excitation 680 nm, emission 520–620 nm). Fluorescence readings were normalized to those of 4 μM LPI, the endogenous GPR55 agonist. No effect of LPI (10 μM) is observed in control HEK293 cells (Supplemental Fig. 1). Final DMSO concentrations were ≤ 0.2%. […]
(LPI). Data are expressed as mean ± SEM normalized to 100 nM phorbol 12-myrisate 13-acetate (PMA), […]

[4] = ref Anderson et al. 2019b, 2021a, 2021b

## CCCCCc1cc2c(c(O)c1C(=O)O)C=CC(C)(CCC=C(C)C)O2 (centres unmarked) [CBCA]
[1]; [4]
  efficacy against hyperthermia-induced seizures: anticonvulsant

## C=C(C)[C@@H]1CCC(C)=C[C@H]1c1c(O)cc(CCCCC)cc1O [CBD, cannabidiol]
[1]; 100 mg/kg, ref Anderson et al. 2019a, 2020, Kaplan et al. 2017
  increase of temperature threshold: approximately 0.5 °C

## C=C(C)[C@@H]1CCC(C)=C[C@H]1c1c(O)cc(CCCCC)c(C(=O)O)c1O [CBDA, cannabidiolic acid]
[1]; [4]
  efficacy against hyperthermia-induced seizures: anticonvulsant

## C=C(C)[C@@H]1CCC(C)=C[C@H]1c1c(O)cc(CCC)c(C(=O)O)c1O [CBDVA]
[1]; [4]
  efficacy against hyperthermia-induced seizures: anticonvulsant

## CCCCCc1cc(O)c(C/C=C(\C)CCC=C(C)C)c(O)c1 [CBG, cannabigerol]
[1]; [4]
  efficacy against hyperthermia-induced seizures: not effective

## CCCCCc1cc(O)c(C/C=C(\C)CCC=C(C)C)c(O)c1C(=O)O [CBGA, Cannabigerolic acid]
[1]; 30 mg/kg, ref Anderson et al. 2021b
  efficacy against hyperthermia-induced seizures: effective
[1]; 100 mg/kg, ref Anderson et al. 2021b
  increase of threshold temperature: ~1 °C
[1]; [4]
  efficacy against hyperthermia-induced seizures: anticonvulsant properties
[2]
  brain penetration / brain uptake: 2% and ~ 2%
[3]
  anticonvulsant properties in MES seizure threshold test: anticonvulsant properties
Human GPR55
  activity at GPR55: inhibition
CaV3.1
  activity at Cav3.1 channels: inhibition

## CCCc1cc(O)c(C/C=C(\C)CCC=C(C)C)c(O)c1C(=O)O [CBGVA]
[1]; [4]
  efficacy against hyperthermia-induced seizures: anticonvulsant

## Lysophosphatidylinositol [LPI]
Control HEK293 cells
  effect on ERK phosphorylation: No effect
